Experimental data taken from ChEMBL document CHEMBL1152560, “Substituted 2-arylbenzothiazoles as kinase inhibitors: hit-to-lead optimization” (Bioorg Med Chem, 2009).

Key:
[1] = target: Tyrosine-protein kinase Fgr (Homo sapiens) (UniProt P09769); assay: Residual activity of FGR at 1 uM by microplate scintillation counting
[2] = target: LIM domain kinase 1 (Homo sapiens) (UniProt P53667); assay: Residual activity of LIMK1 at 0.1 uM by microplate scintillation counting
[3] = target: LIM domain kinase 1 (Homo sapiens) (UniProt P53667); assay: Residual activity of LIMK1 at 10 uM by microplate scintillation counting
[4] = target: Protein kinase C alpha type (Homo sapiens) (UniProt P17252); assay: Residual activity of PKCalpha at 10 uM by microplate scintillation counting
[5] = target: Serine/threonine-protein kinase PAK 1 (Homo sapiens) (UniProt Q13153); assay: Residual activity of PAK1 at 0.1 uM by microplate scintillation counting
[6] = target: Platelet-derived growth factor receptor beta (Homo sapiens, UniProt P09619); assay: Residual activity of PDGFRbeta at 1 uM by microplate scintillation counting
[7] = target: T1, Ephrin type-A receptor 8 (Homo sapiens) (UniProt P29322); assay: Residual activity of EPHA8 at 1 uM by microplate scintillation counting
T1 sequence (whole entry): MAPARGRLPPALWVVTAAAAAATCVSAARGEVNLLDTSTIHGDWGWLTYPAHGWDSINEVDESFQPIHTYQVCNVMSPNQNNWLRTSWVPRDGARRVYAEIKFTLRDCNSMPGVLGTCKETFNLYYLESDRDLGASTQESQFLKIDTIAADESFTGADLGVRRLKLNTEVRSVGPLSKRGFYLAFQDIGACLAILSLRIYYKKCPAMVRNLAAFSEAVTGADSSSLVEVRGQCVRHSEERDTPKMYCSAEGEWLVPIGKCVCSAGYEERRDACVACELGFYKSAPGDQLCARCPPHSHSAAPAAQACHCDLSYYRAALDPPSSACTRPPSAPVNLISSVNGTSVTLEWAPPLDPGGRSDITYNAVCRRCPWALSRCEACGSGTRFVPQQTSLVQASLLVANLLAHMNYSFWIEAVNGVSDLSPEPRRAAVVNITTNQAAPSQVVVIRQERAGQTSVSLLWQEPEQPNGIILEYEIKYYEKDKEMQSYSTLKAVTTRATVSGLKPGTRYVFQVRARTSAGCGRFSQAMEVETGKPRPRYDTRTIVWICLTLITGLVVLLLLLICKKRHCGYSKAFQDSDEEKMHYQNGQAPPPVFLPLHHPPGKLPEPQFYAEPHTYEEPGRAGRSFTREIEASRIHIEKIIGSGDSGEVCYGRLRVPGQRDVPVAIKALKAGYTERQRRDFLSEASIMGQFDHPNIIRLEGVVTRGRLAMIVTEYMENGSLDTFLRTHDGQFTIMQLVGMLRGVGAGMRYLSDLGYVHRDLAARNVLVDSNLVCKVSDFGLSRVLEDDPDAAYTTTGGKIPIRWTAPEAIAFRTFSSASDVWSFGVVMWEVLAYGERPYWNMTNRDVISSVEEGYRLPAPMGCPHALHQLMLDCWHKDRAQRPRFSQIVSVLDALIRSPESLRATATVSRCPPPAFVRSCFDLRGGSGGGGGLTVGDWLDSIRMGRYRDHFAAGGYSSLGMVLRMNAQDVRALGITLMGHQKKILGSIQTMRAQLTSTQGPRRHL

[8] = target: ALK tyrosine kinase receptor (Homo sapiens) (UniProt Q9UM73); assay: Residual activity of ALK at 1 uM by microplate scintillation counting
[9] = target: CDK3/cyclin E (Homo sapiens) (UniProt P24864+O96020+Q00526); assay: Residual activity of CDK3/Cyclin E at 0.1 uM by microplate scintillation counting; assay type: protein-complex assay
[10] = target: CDK4/Cyclin D3 (Homo sapiens) (UniProt P11802+P30281); assay: Residual activity of CDK4/Cyclin D3 at 10 uM by microplate scintillation counting; assay type: protein-complex assay
[11] = target: Serine/threonine-protein kinase pim-2 (Homo sapiens) (UniProt Q9P1W9); assay: Residual activity of PIM2 at 0.1 uM by microplate scintillation counting
[12] = target: Interferon-induced, double-stranded RNA-activated protein kinase (Homo sapiens) (UniProt P19525); assay: Residual activity of EIF2AK2 at 1 uM by microplate scintillation counting
[13] = target: Serine/threonine-protein kinase MARK1 (Homo sapiens) (UniProt Q9P0L2); assay: Residual activity of MARK1 at 1 uM by microplate scintillation counting
[14] = target: T2, NUAK family SNF1-like kinase 1 (Homo sapiens) (UniProt O60285); assay: Residual activity of ARK5 at 0.1 uM by microplate scintillation counting
T2 sequence (whole entry): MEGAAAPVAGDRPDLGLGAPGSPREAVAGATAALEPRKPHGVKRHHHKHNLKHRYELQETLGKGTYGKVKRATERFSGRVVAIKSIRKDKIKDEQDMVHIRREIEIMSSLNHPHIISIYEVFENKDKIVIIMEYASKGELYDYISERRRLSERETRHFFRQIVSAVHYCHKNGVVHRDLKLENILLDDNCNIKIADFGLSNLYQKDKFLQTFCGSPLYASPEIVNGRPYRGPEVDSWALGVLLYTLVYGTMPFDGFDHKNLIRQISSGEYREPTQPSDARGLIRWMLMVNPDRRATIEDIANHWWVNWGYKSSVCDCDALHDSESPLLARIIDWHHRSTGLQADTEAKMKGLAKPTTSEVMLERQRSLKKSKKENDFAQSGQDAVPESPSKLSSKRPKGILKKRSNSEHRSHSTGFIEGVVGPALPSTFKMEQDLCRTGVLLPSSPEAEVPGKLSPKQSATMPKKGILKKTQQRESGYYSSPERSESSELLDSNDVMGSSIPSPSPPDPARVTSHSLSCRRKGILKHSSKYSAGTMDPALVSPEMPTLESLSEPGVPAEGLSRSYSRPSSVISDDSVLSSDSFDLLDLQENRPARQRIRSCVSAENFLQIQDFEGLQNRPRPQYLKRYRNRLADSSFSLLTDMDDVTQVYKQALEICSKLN

[15] = target: Serine/threonine-protein kinase PAK 5 (Homo sapiens) (UniProt Q9P286); assay: Residual activity of PAK7 at 0.1 uM by microplate scintillation counting
[16] = target: Casein kinase I isoform epsilon (Homo sapiens) (UniProt P49674); assay: Residual activity of CK1epsilon at 0.1 uM by microplate scintillation counting
[17] = target: Protein kinase C theta type (Homo sapiens) (UniProt Q04759); assay: Residual activity of PKCtheta at 10 uM by microplate scintillation counting
[18] = target: RAC-gamma serine/threonine-protein kinase (Homo sapiens) (UniProt Q9Y243); assay: Residual activity of AKT3 at 0.1 uM by microplate scintillation counting
[19] = target: Cyclin-dependent kinase 2/cyclin E1 (Homo sapiens) (UniProt P24864+P24941); assay: Residual activity of CDK2/Cyclin E at 10 uM by microplate scintillation counting; assay type: protein-complex assay
[20] = target: Mitogen-activated protein kinase 9 (Homo sapiens) (UniProt P45984); assay: Residual activity of JNK2 at 10 uM by microplate scintillation counting
Mitogen-activated protein kinase 9 (Homo sapiens), sequence (P45984 whole entry, looked up): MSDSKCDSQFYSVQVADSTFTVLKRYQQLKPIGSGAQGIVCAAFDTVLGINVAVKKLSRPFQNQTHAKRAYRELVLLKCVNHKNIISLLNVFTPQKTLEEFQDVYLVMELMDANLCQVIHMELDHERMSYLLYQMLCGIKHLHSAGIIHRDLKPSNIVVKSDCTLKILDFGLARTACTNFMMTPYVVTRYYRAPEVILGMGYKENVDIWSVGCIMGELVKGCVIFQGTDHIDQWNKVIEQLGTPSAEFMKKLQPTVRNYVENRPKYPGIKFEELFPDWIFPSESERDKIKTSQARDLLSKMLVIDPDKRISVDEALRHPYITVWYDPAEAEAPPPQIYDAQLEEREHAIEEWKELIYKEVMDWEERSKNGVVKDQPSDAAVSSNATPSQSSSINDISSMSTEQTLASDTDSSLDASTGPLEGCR

Tyrosine-protein kinase Fgr (Homo sapiens), sequence (P09769 2-529 limits assumed): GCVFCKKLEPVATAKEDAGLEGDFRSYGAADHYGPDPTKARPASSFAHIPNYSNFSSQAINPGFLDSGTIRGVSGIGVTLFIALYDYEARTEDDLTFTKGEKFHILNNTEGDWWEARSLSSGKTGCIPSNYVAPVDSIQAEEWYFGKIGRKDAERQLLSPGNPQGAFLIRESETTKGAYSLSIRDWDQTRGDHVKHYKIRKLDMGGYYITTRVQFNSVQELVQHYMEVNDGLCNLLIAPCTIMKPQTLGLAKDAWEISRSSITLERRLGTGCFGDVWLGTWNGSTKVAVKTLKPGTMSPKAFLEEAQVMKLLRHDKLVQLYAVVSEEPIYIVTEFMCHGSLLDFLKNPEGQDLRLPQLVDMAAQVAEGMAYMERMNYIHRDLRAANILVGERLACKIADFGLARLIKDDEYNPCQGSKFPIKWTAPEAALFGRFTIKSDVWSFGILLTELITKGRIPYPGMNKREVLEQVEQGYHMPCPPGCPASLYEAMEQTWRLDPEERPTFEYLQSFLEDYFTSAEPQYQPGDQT
CDK3/cyclin E (Homo sapiens), sequence (O96020 whole entry, looked up): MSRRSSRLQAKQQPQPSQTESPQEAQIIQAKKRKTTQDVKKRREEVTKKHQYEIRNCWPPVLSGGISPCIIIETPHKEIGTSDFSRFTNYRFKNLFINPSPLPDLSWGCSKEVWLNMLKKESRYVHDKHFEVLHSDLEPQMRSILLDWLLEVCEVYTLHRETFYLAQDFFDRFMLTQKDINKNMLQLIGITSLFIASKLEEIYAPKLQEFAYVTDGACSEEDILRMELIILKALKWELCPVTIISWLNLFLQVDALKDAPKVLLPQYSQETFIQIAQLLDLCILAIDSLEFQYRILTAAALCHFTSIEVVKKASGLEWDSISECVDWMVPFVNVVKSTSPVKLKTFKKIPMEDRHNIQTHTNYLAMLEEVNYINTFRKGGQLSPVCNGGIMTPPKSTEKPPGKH
CDK3/cyclin E (Homo sapiens), sequence (P24864 whole entry, looked up): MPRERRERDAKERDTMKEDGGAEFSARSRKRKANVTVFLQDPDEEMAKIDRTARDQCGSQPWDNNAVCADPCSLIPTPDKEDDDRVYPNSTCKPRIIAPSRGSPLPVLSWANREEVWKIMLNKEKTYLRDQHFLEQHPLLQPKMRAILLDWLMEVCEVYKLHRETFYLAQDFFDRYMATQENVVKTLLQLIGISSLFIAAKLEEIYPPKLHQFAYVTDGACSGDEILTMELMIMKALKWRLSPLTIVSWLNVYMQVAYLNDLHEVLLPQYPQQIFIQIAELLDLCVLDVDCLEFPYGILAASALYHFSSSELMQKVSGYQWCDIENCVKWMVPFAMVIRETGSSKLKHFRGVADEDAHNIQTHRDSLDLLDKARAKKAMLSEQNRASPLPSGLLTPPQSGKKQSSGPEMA
CDK3/cyclin E (Homo sapiens), sequence (Q00526 whole entry, looked up): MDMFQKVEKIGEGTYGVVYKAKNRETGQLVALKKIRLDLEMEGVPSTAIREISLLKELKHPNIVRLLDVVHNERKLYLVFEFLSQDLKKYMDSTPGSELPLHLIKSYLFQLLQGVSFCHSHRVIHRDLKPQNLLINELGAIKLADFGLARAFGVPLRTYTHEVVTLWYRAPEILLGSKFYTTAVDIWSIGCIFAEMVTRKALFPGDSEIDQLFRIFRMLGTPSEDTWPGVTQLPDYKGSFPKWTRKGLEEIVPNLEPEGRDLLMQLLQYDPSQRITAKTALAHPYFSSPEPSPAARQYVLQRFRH
Serine/threonine-protein kinase MARK1 (Homo sapiens), sequence (Q9P0L2 whole entry, looked up): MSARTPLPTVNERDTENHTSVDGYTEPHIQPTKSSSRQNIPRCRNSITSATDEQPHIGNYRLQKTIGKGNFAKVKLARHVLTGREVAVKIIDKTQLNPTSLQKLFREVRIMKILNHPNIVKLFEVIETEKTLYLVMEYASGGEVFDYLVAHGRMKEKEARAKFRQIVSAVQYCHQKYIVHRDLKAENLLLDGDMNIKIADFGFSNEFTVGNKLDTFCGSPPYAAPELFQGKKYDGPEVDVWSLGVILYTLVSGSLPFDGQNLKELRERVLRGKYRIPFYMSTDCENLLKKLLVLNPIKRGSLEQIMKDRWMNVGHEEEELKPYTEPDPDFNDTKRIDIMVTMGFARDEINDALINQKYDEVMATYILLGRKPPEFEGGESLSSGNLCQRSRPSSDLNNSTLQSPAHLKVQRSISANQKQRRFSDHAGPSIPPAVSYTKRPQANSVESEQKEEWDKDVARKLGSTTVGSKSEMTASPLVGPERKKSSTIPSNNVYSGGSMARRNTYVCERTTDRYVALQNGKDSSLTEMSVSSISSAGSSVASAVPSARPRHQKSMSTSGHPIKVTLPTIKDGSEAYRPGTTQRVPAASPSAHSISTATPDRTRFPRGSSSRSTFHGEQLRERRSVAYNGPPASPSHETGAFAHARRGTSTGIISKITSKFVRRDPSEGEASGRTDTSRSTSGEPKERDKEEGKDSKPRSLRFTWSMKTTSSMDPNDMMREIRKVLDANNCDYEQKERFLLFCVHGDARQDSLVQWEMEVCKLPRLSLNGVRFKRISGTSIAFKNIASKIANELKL
Protein kinase C theta type (Homo sapiens), sequence (Q04759 whole entry, looked up): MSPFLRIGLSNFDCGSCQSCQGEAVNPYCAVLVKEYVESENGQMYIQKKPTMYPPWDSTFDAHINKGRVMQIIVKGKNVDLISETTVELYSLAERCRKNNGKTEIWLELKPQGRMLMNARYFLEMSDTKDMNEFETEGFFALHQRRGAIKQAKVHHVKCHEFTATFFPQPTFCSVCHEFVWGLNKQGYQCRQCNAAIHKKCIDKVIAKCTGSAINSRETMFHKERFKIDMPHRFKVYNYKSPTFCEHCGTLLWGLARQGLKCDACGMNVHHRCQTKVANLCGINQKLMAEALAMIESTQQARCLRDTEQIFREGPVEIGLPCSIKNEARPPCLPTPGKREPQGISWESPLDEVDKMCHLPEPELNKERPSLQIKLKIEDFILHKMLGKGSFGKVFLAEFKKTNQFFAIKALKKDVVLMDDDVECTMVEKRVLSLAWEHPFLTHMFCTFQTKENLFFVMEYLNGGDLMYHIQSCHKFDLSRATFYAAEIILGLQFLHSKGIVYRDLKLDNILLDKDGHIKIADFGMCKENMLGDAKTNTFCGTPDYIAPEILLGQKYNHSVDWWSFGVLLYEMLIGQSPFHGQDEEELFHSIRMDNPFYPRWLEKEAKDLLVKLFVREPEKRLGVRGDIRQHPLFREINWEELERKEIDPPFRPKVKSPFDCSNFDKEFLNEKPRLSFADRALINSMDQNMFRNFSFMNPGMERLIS
LIM domain kinase 1 (Homo sapiens), sequence (P53667 whole entry, looked up, the tested form may be a part): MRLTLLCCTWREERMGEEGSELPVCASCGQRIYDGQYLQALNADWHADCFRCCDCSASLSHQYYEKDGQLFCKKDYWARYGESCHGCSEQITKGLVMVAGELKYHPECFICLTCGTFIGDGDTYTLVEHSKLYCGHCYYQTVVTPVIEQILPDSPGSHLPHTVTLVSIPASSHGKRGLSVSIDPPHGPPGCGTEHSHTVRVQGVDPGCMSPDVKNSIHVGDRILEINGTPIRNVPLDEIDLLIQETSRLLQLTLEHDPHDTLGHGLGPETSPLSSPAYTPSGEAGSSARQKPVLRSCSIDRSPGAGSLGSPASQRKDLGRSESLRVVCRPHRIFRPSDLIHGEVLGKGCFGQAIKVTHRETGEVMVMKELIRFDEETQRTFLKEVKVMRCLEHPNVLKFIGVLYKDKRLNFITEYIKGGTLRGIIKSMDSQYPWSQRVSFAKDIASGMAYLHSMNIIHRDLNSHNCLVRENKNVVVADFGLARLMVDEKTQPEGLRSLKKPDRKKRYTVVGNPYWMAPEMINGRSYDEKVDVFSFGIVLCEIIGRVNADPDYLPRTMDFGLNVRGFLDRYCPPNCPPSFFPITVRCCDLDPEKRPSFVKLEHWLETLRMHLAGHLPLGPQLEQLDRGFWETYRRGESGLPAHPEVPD

| Structure (SMILES) | residual activity [1] [%] | residual activity [2] [%] | residual activity [3] [%] | residual activity [4] [%] | residual activity [5] [%] | residual activity [6] [%] | residual activity [7] [%] | residual activity [8] [%] | residual activity [9] [%] | residual activity [10] [%] | residual activity [11] [%] | residual activity [12] [%] | residual activity [13] [%] | residual activity [14] [%] | residual activity [15] [%] | residual activity [16] [%] | residual activity [17] [%] | residual activity [18] [%] | residual activity [19] [%] | residual activity [20] [%] |
| --- | --- | --- | --- | --- | --- | --- | --- | --- | --- | --- | --- | --- | --- | --- | --- | --- | --- | --- | --- | --- |
| COc1cc2c(Oc3ccc(-c4nc5ccccc5s4)cc3F)ncnc2cc1OCCCN1CCN(C)CC1 | 91 | 77 | 95 | 50 | 93 | 88 | 149 | 178 | 98 | 93 | 94 | 72 | 90 | 94 | 84 | 79 | 87 | 107 | 194 | 122 |
| COc1cc2c(Oc3ccc(-c4nc5ccccc5s4)cc3)ncnc2cc1OCCCN1CCCC1 | 94 | 76 | 96 | 61 | 99 | 78 | 147 | 169 | 90 | 98 | 104 | 83 | 86 | 83 | 92 | 89 | 64 | 100 | 116 | 93 |
| COc1cc2c(Oc3ccc(-c4nc5ccccc5s4)cc3)ncnc2cc1OCCCN1CCN(C)CC1 | 101 | 68 | 89 | 80 | 97 | 78 | 123 | 171 | 86 | 105 | 64 | 73 | 86 | 98 | 80 | 80 | 96 | 96 | 186 | 96 |
